As usually defined, the inhibition is the drop in the measured response relative to a control, in per cent.

Structures can show the parent of a compound that is named as a salt.

This experiment concerns platelet hyper-aggregation induced by ADP. Description: Inhibition of ADP-induced platelet hyperaggregation in vitro (Born's method, aggregometer ELVI 840). In kind it is cell-based, New Zealand rabbits. The settings on record: Oryctolagus cuniculus, 0.5 h, ADP 20 μg/ml, 100 γ/ml of active compound, rabbit PRP, incubated 30 minutes at 37° C, read-out: Inhibition of platelet hyper-aggregation induced by ADP. On the procedure:
Two separate centrifugations are effected (at 1000 rpm and at 6000 rpm), thus obtaining PRP ([…]) and PPP ([…]); the first is diluted with the second in order to obtain a platelet concentration of 300,000 per mm^3 (the count is effected in a Buerker apparatus). The compounds with a platelet antiaggregating activity of the present invention are added at the desired concentrations and incubated for 30 minutes at 37° C. with the aggregating agents. […] The various compounds represented by the numbers in the first column are identifiable by the numbers in the second column which refer to the examples described below in this specification.
In the case of `C=CCc1c(O)c(CN2CCOCC2)cc2c(C)cc(=O)oc12` [Compound 25, 4-methyl-6-(4-morpholinylmethyl)-7-hydroxy-8-allylcumarin hydrochlorode], the inhibition at 100 µg/mL is 19%. Consider `C=CCc1c(OCC(=O)OCC)c(CN2CCOCC2)cc2c(C)cc(=O)oc12` [Compound 27, Ethyl ester of the acid [4-methyl-6-(4-morpholinylmethyl)-8-allylcumarin-7-yl]oxyacetic], for which the inhibition at 100 µg/mL turned out to be 32%.

Turning to `C=CCOc1c(CN2CCOCC2)cc2c(C)cc(=O)oc2c1CC=C` [Compound 28, 4-methyl-6-(4-morpholinylmethyl)-7-allyloxy-8-allylcumarin hydrochloride], the inhibition at 100 µg/mL worked out at 54%. For the compound `C=CCc1c(OC(C)(C)C(=O)OCC)c(CN2CCOCC2)cc2c(C)cc(=O)oc12` [Compound 29, Ethyl ester of the acid 2-[4-methyl-6-(4-morpholinylmethyl)-8-allylcumarin-7-yl]oxy-2-methylpropionic hydrochloride], the inhibition at 100 µg/mL was determined as 19%. For the compound `C=CCc1c(O)c(CN2CCOCC2)cc2c(-c3ccccc3)cc(=O)oc12` [Compound 44, 4-phenyl-6-(4-morpholinylmethyl)-7-hydroxy-8-allylcumarin hydrochloride], the inhibition at 100 µg/mL is 20%.

`C=CCc1c(O)c(CN2CCN(CCO)CC2)cc2c(-c3ccccc3)cc(=O)oc12` [Compound 49, 4-phenyl-6-[[4-(2-hydroxyethyl)-1-piperazinyl]methyl]-7-hydroxy-8-allylcumarin dihydrochloride]: the inhibition at 100 µg/mL was determined as 25%.

`C=CCOc1c(CN2CCOCC2)cc2c(-c3ccccc3)cc(=O)oc2c1CC=C` [Compound 50, 4-phenyl-6-(4-morpholinylmethyl)-7-allyloxy-8-allylcumarin hydrochloride]: the inhibition at 100 µg/mL was 25%. Then `C=CCc1c(OCC(=O)OCC)c(CN2CCOCC2)cc2c(-c3ccccc3)cc(=O)oc12` [Compound 51, Ethyl ester of [4-phenyl-6-(4-morpholinylmethyl)-8-allylcumarin-7-yl]oxy acetic acid hydrochloride], with 37%; and `C=CCc1c(OC(C)(C)C(=O)OCC)c(CN2CCOCC2)cc2c(-c3ccccc3)cc(=O)oc12` [Compound 52, Ethyl ester of 2-[4-phenyl-6-(4-morpholinylmethyl)-8-allylcumarin-7-yl]oxy-2-methylpropionic acid hydrochloride], with 22%.

Regarding `CCN(CC)CCc1c(C)c2cc(CN3CCOCC3)c(O)c(Cl)c2oc1=O` [Compound 58, 3-(2-diethylaminoethyl)-4-methyl-6-(4-morpholinylmethyl)-7-hydroxy-8-chlorocumarin dihydrochloride], the inhibition at 100 µg/mL is 25%.

Take `CCOC(=O)COc1c(CN2CCOCC2)cc2c(C)c(CCN(CC)CC)c(=O)oc2c1Cl` [Compound 62, Ethyl ester of [3-(2-diethylaminoethyl)-4-methyl-6-(4-morpholinylmethyl)-8-chlorocumarin-7-yl]oxyacetic acid dihydrochloride]: the inhibition at 100 µg/mL turned out to be 23%. Turning to `C=CCOc1c(CN2CCOCC2)cc2c(C)c(CCN(CC)CC)c(=O)oc2c1Cl` [Compound 67, 3-(2-diethylaminoethyl)-4-methyl-6-(4-morpholinylmethyl)-7-allyloxy-8-chlorocumarin hydrochloride], the inhibition at 100 µg/mL is 18%. Regarding `CCOC(=O)C(C)(C)Oc1c(CN2CCOCC2)cc2c(C)c(CCN(CC)CC)c(=O)oc2c1Cl` [Compound 68, Ethyl ester of 2-[3-(2-diethylaminoethyl)-4-methyl-6-(4-morpholinylmethyl)-8-chlorocumarin-7-yl]oxy-2-methylpropionic acid dihydrochloride], the inhibition at 100 µg/mL came to 41%.

As for `Cc1cc(=O)oc2c(Cl)c(O)c(CN3CCOCC3)cc12` [Compound 69, 4-methyl-6-(4-morpholinylmethyl)-7-hydroxy-8-chlorocumarin hydrochloride], the inhibition at 100 µg/mL stood at 29%.

For `CCN(CC)Cc1cc2c(C)cc(=O)oc2c(Cl)c1O` [Compound 76, 4-methyl-6-diethylaminomethyl-7-hydroxy-8-chlorocumarin hydrochloride], the inhibition at 100 µg/mL came out at 27%. With `O=c1cc(-c2ccccc2)c2cc(CN3CCOCC3)c(O)c(Cl)c2o1` [Compound 102, 4-phenyl-6-(4-morpholinylmethyl)-7-hydroxy-8-chlorocumarin hydrochloride], the inhibition at 100 µg/mL was determined as 12%. Then `CCN(CC)CCc1c(C)c2cc(CN3CCOCC3)c(OC)c(Cl)c2oc1=O` [Compound 105, 3-(2-diethylaminoethyl)-4-methyl-6-(4-morpholinylmethyl)-7-methoxy-8-chlorocumarin dihydrochloride], with 28%; and `C=CCc1c(O)c(CN2CCCC2)cc2c(C)cc(=O)oc12` [Compound 117, 4-methyl-6-(1-pyrrolidinylmethyl)-7-hydroxy-8-allylcumarin hydrochloride], with 44%. As for `C=CCc1c(O)c(CN(CC)CC)cc2c(C)cc(=O)oc12` [Compound 121, 4-methyl-6-diethylaminomethyl-7-hydroxy-8-allylcumarin hydrochloride], the figure is 51%; as for `C=CCc1c(O)c(CN2CCCCC2)cc2c(C)cc(=O)oc12` [Compound 124, 4-methyl-6-(1-piperidinylmethyl)-7-hydroxy-8-allylcumarin hydrochloride], 38%; as for `Cc1cc(=O)oc2c(C)c(O)c(CN(C)C)cc12` [Compound 130, 4,8-dimethyl-6-dimethylaminomethyl-7-hydroxycumarin hydrochloride], 29%. For `Cc1cc(=O)oc2c(Cl)c(O)c(CN(C)C)cc12` [Compound 132, 4-methyl-6-dimethylaminomethyl-7-hydroxy-8-chlorocumarin hydrochloride], the inhibition at 100 µg/mL is 13%. Consider `Cc1cc(=O)oc2c(C)c(O)c(CN3CCOCC3)cc12` [Compound 188, 4,8-dimethyl-6-(4-morpholinylmethyl)-7-hydroxycoumarin hydrochloride], for which the inhibition at 100 µg/mL was 19%. As for `C=CCc1c(O)c(CN2CCC(O)CC2)cc2c(C)cc(=O)oc12` [Compound 200, 4-methyl-6-[(4-hydroxy-1-piperidinyl)methyl]-7-hydroxy-8-allylcumarin hydrochloride], the figure is 21%; as for `C=CCc1c(O)c(CN2CCCC(O)C2)cc2c(C)cc(=O)oc12` (stereo not shown) [Compound 201, 4-methyl-6-[(3-hydroxy-1-piperidinyl)methyl]-7-hydroxy-8-allylcumarin hydrochloride], 32%.

The record behind these values is patent publication US4737517A, “Coumarin derivatives, pharmaceutical compositions containing the same, and the use thereof in the treatment of cancer” (FIDIA, S.p.A., priority 1983, dated 1988).
